ChEMBL document CHEMBL2424659, “Comparative QSAR and pharmacophore analysis for a series of 2,4-dihydro-3H-1,2,4-triazol-3-ones derivatives as angiotensin II AT1 receptor antagonists” (Med Chem Res, 2013)

Biological target: T1, Type-1 angiotensin II receptor (Oryctolagus cuniculus, UniProt P34976)
T1 sequence (P34976 whole entry): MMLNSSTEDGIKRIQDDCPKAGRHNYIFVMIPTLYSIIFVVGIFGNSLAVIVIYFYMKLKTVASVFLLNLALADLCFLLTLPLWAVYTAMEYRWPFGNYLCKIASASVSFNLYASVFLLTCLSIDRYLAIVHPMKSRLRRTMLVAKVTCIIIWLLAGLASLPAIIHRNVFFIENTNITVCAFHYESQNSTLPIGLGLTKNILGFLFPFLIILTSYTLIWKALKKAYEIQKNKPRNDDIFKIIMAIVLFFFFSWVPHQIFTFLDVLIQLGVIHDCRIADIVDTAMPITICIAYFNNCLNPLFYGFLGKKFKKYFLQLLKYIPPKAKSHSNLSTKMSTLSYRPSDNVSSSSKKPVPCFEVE
Experiment: Antagonist activity at AT1 receptor in rabbit aorta membranes
Format: cell membranes, Membrane

IC50: 24 nM
SMILES: CCCCC(=O)Nc1ccc(C)c(-n2nc(CCCC)n(Cc3ccc(-c4ccccc4S(=O)(=O)NC(=O)c4ccccc4Cl)cc3)c2=O)c1
